Test results as given in patent publication US20220356169A1, “TETRAZINES FOR HIGH CLICK RELEASE SPEED AND YIELD” (priority 2019, published 2022).

Experiments:
[1] = Second-order rate constant of the IEDDA reaction with TCO 3.2, UV-Vis under second-order conditions in MeCN; format: physicochemical; conditions: MeCN at 20° C.; n = 1
Experimental: The second-order rate constant of the IEDDA reaction between model TCO 3.2 and activators 2.7 or 2.8 in MeCN at 20° C. was determined (n=1) by UV-Vis spectrometry under second-order conditions. A cuvette was filled with a solution of activator (3 mL 0.083 mM in MeCN), and equilibrated at 20° C. Next, a solution of TCO 3.2 (10.0 μL, 25 mM in DMSO) was added. The absorption at 540 nm was measured every second in a time course experiment. From the decay of this absorption, the conversion x was calculated. The second-order rate constant k2 was determined from the slope of the curve of a plot of 1/c-1/c0 versus time. The second-order rate constant of the IEDDA reaction between model TCO 3.2 and activators 2.7, 2.8, 2.14, 2.16, or 2.17 in 25% MeCN/PBS at 20° C. was determined (n=5) by stopped-flow UV-Vis spectrometry under pseudo first-order conditions. Tetrazine solutions (0.25 mM in 25% MeCN/PBS) and TCO 3.2 (3.45 mM in 25% MeCN/PBS) were mixed in a volume ratio of 1:1, resulting in a concentration of 0.125 mM and 1.73 mM, respectively. The absorption at 520 nm was measured every 50 ms, and from the decay of this absorption, the pseudo first-order rate constant k1′ was determined by a nonlinear Simplex regression analysis of the data points using BioKine software. The second-order rate constant k2 was calculated: k2=k1′/c,TCO. […]

[2] = Activator stability in PBS at rt (UV decay at 520 nm); format: physicochemical; conditions: mean ± SD (n = 3)
Experimental: The assessment of activator stability was performed in PBS at rt. Solutions in DMSO (2.5 mM, 20 μL) were diluted with PBS (3.00 mL), filtered, and incubated at rt. The decrease of the absorption band at 520 nm was monitored using UV spectroscopy.

[3] = Second-order rate constant of the IEDDA reaction with TCO 3.2, stopped-flow UV-Vis, pseudo first-order conditions; format: physicochemical; conditions: 25% MeCN/PBS at 20° C.; mean ± SD (n = 5)
Experimental: The second-order rate constant of the IEDDA reaction between model TCO 3.2 and activators 2.7 or 2.8 in MeCN at 20° C. was determined (n=1) by UV-Vis spectrometry under second-order conditions. A cuvette was filled with a solution of activator (3 mL 0.083 mM in MeCN), and equilibrated at 20° C. Next, a solution of TCO 3.2 (10.0 μL, 25 mM in DMSO) was added. The absorption at 540 nm was measured every second in a time course experiment. From the decay of this absorption, the conversion x was calculated. The second-order rate constant k2 was determined from the slope of the curve of a plot of 1/c-1/c0 versus time. The second-order rate constant of the IEDDA reaction between model TCO 3.2 and activators 2.7, 2.8, 2.14, 2.16, or 2.17 in 25% MeCN/PBS at 20° C. was determined (n=5) by stopped-flow UV-Vis spectrometry under pseudo first-order conditions. Tetrazine solutions (0.25 mM in 25% MeCN/PBS) and TCO 3.2 (3.45 mM in 25% MeCN/PBS) were mixed in a volume ratio of 1:1, resulting in a concentration of 0.125 mM and 1.73 mM, respectively. The absorption at 520 nm was measured every 50 ms, and from the decay of this absorption, the pseudo first-order rate constant k1′ was determined by a nonlinear Simplex regression analysis of the data points using BioKine software. The second-order rate constant k2 was calculated: k2=k1′/c,TCO. As expected for a cycloaddition reaction, the reactivity in PBS is much higher than in MeCN, and importantly the tetrazines of the invention are at least 1 order of magnitude more reactive than the known and high-releasing 3,6-bismethyl-tetrazine (2.17), while giving similar release yields (see Example 7).

[4] = Cell proliferation assay (MTT); format: cell-based; conditions: human, 3 days incubation, mean ± SEM (n = 6), read-out: LS174T cell viability (%); for viability at 72 h, 0.01 μM: 0.01 μM activator; for viability at 72 h, 0.1 μM: 0.1 μM activator; for viability at 72 h, 1 μM: 1 μM activator
Experimental: The human colon carcinoma LS174T cell line was obtained from the American Type Culture Collection and cultured in RPMI-1640 medium supplemented with 2 mM glutamine and 10% heat inactivated fetal calf serum. Twenty-four hours prior to the experiment, the cells were plated in 96-well plates at a 5000 cells/well density. The cells were then incubated with serial dilutions (10 nM-1 μM; n=6) of activators 2.7, 2.8, 2.14, 2.16, 2.17, 2.18 and 2.19 in culture medium for 72h at 37° C. The % cell proliferation was assessed by an MTT assay, in comparison to cells incubated in culture medium without activator. No toxicity was observed when the LS174T cells were incubated with the tested activators (and possible metabolites formed in the presence of serum) for 3-days at a 0.01-1 μM activator concentration.

[5] = Triggered release of Construct-A from TCO trigger, HPLC-MS/PDA
Experimental: At the specified time point, the sample was analyzed by HPLC-MS/PDA, and the release yield was determined from the observed amounts of IEDDA adducts, elimination product, and/or released Construct. In case the release was not complete, the sample was incubated at 37° C. for additional time and analyzed once again.

[6] = test system: ADC AVP0458-TCO-MMAE; test: Triggered drug (MMAE) release from ADC in 50% mouse plasma, HPLC-SIM-MS; conditions: for MMAE release from ADC AVP0458-TCO-MMAE, Release (%) / MMAE release level, in words: 50% mouse plasma, 37° C.; for MMAE release level, in words: after 24h incubation
Experimental: In a 1.5 mL vial, the following was combined: 650 μL mouse plasma, 600 μL PBS, 20 μL ADC (1.62 μg/μL in PBS) and 7.5 μL d8-MMAE solution (0.167 μg/μL, internal standard). Next, aliquots of 20 μL were prepared to which 5.2 μL of a tetrazine solution (0.25 mM in 1:1 DMSO/H2O) was added and the solution was incubated at 37° C. At various times, 100 μL of cold MeCN was added to the aliquot and the mixture was vortexed, stored at 4° C. for 30 min. and centrifuged. 20 μL of supernatant was taken and combined with 100 μL of 1% formic acid (aq) solution. This sample was analysed with HPLC-SIM-MS to quantify the ratio of free MMAE and d8-MMAE, which is a measure of the release yield.

[7] = test system: 125I-labeled CC49 conjugate; test: Triggered radiolabel release from 125I-labeled CC49-3.6 conjugate, SEC; conditions: 2h in PBS at 37° C.
Experimental: The anti-TAG72 mAb CC49 was conjugated with 3.6 in borate buffer pH 8.0 (containing 1 mM DTPA) using 3 equiv. TCEP. After conjugation, the product was dialyzed extensively (20 kDa MW cut-off membrane) in PBS. The CC49-3.6 the conjugate was radiolabeled using a previously described ^125I-labeled tetrazine [Albu et al., Bioconjug Chem 2016, 27, 207-216] in PBS at 37° C. for 1 h. Due to the higher reactivity of the TCO tag on the outside vs the cleavable TCO trigger on the inside the radiolabeling occurred selectively via the TCO tag. The crude labeling mixture was purified using a desalting cartridge (Zeba spin column, 40 kDa MW cut-off) then the isolated ^125I-labeled CC49 conjugate was incubated with activator 2.7 for 2h in PBS at 37° C., resulting in reaction with the TCO trigger, yielding 88.6% radiolabel release, as confirmed by SEC analysis.

[8] = test system: TCO Trigger on tumor-bound ADC; test: In vivo reactivity between ADC AVP0458-TCO-MMAE and tetrazine activators (tumor activation study); set-up: species or system mice; conditions: higher dose (dose 5×: ca. 16.7 μmol/kg)
Experimental: (§1) Female nude Balb/C mice were subcutaneously inoculated ca. 1×10^6 LS174T cells in the hind limb. Biodistribution studies started when the tumors reached 0.1-0.2 cm^3 size. Experiments were carried out to evaluate the reactivity between the TCO Trigger on tumor-bound ADC and activators 2.7, 2.8, 2.14 and 2.16 in LS174T xenografts, as previously performed for other activators [Rossin et al Nature Communications 2018, 9, 1484]. The activators were administered at a 20- to 100-lower dose than that used in previous activation and therapy studies (ca. 0.335 mmol/kg). […] Groups of tumor bearing mice (n=4) were injected with ^125I-labeled ADC (2 mg/kg) followed 48 h later by the activators (dose 1×: ca. 3.3 μmol/kg; dose 5×: ca. 16.7 μmol/kg) and, after 1 h, by [^111In]In-2.20 (ca. 0.33 μmol/kg). One group was injected with the same amount of ^125I-labeled ADC followed only by ^111In-2.20 49 h later. One group was injected only with ^111In-2.20 (non-specific probe binding). All mice were euthanized 23 h post-probe injection and the ^125I and ^111In uptakes in tumors were measured by γ-counting.

[9] = test system: LS174T xenografts; test: MMAE measurement in tumors; format: in vivo, mice; conditions: 24 h after administration of activator at dose 1×
Experimental: as §1
The concentration of MMAE released in tumors was measured as previously reported [Rossin et al Nature Communications 2018, 9, 1484]. […] For this reason, activator 2.16 was selected for a therapy study in combination with the click-cleavable ADC. At the doses of tc-ADC (4 mg/kg) and 2.16 (dose 10×; 33.5 μmol/kg) used for therapy study, a high level of 339±45 nM free MMAE was detected in tumors.

[10] = 2 min after reaction with activator

| SMILES | half-life at 16.6 µM [2] [min] | Calculated k2 values for the reaction between tetrazine activators and TCO 3.2 in PBS [3] [M⁻¹ s⁻¹] | viability at 72 h, 0.01 μM [4] [%] | viability at 72 h, 0.1 μM [4] [%] | viability at 72 h, 1 μM [4] [%] | MMAE release from ADC AVP0458-TCO-MMAE, Release (%) [6, 10] [%] | MMAE release from ADC AVP0458-TCO-MMAE, Release (%) ([6]; 10 min) | MMAE release from ADC AVP0458-TCO-MMAE, Release (%) ([6]; 1 h) | MMAE release from ADC AVP0458-TCO-MMAE, Release (%) ([6]; 5 h) | MMAE release from ADC AVP0458-TCO-MMAE, Release (%) ([6]; 24 h, mean ± SD (n = 3)) | MMAE release level, in words [6] | further results |
| --- | --- | --- | --- | --- | --- | --- | --- | --- | --- | --- | --- | --- |
| Oc1cccnc1-c1nnc(-c2ncccc2O)nn1 [2.7, 2,2′-(1,2,4,5-Tetrazine-3,6-diyl)bis(pyridin-3-ol)] | 2270 ± 48 | 397 ± 4 | 93.6 ± 4.1 | 91.5 ± 4.4 | 98.2 ± 4.6 | 53.8 | 80.1 | 80.9 | 83.8 | 98.4 ± 0.3 | as high as that obtained with the less reactive 2.17 | Calculated k2 values for the reaction between tetrazine activators and TCO 3.2 in MeCN [1]: 68 M⁻¹ s⁻¹; Construct release % ([5]; TCO 3.10, doxorubicin, 18 h, 37° C.): 18 h: 100%; Construct release % ([5]; TCO 3.10, released construct doxorubicin, 5 min): 5 min: 52%; Construct release % ([5]; TCO 3.11, released construct doxorubicin, 5 min): 5 min: 100%; Construct release % ([5]; TCO 3.2, dimethylamine, 2 h, incubated at 37° C.): 2 h: 80%; Construct release % ([5]; TCO 3.2, dimethylamine, 20 h, incubated at 37° C.): 20 h: 95%; Construct release % ([5]; TCO 3.2, released construct dimethylamine, 5 min, MeCN/PBS): 5 min: 50%; Construct release % ([5]; TCO 3.23, released construct dimethylamine, 5 min): 5 min: 100%; Construct release % ([5]; TCO 3.32, released construct dimethylamine, 5 min): 5 min: 100%; Construct release % ([5]; TCO 3.7, 3-phenylpropan-1-ol, 24 h, 37° C.): 24 h: 88%; Construct release % ([5]; TCO 3.7, 3-phenylpropan-1-ol, 48 h, 37° C.): 48 h: 95%; Construct release % ([5]; TCO 3.7, released construct 3-phenylpropan-1-ol, 5 min): 5 min: 74%; Construct release % ([5]; TCO 3.8, benzoic acid, 24 h, 37° C.): 24 h: 90%; Construct release % ([5]; TCO 3.8, released construct benzoic acid, 5 min): 5 min: 45%; Construct release % ([5]; TCO 3.9, phenol, 24 h, 37° C.): 24 h: 93%; Construct release % ([5]; TCO 3.9, released construct phenol, 5 min): 5 min: 50%; MMAE release speed, in words ([6]; compared with 2.17): faster; radiolabel release [7]: 88.6% |
| O=C(CCCC(=O)Nc1cccnc1-c1nnc(-c2ncccc2NC(=O)CCCC(=O)NCCOCCOCCOCCOCCOCCOCCOCCOCCOCCO)nn1)NCCOCCOCCOCCOCCOCCOCCOCCOCCOCCO [2.14, N^1,N^1′-(2,2′-(1,2,4,5-Tetrazine-3,6-diyl)bis(pyridine-3,2-diyl))bis(N^5-(29-hydroxy-3,6,9,12,15,18,21,24,27-nonaoxanonacosyl)glutaramide)] | 522 ± 6 | 748 ± 20 | 107 ± 3 | 104 ± 2.7 | 97 ± 2.5 | 0.6 | 2.1 | 16.6 | 49.9 | 80.5 ± 0.3 | as high as that obtained with the less reactive 2.17 | on-tumor reaction yield with the ADC (tumor activation) [8]: 94.2±1.8%; free MMAE in tumors, comparison of activators [9]: No difference |
